The values below come from the NIST ThermoML archive (doi:10.1016/j.jct.2013.08.016).

The conditions of series [1]: 101.3 kPa, Liquid, Capillary tube (Ostwald / Ubbelohde) method.
Series [2] can be described thus: refractive index (Na D-line) (dimensionless). Conditions: 101.33 kPa, Liquid, Standard Abbe refractometry.
Series [3] in a line: refractive index (Na D-line) (dimensionless); mn = molality of the nth substance listed, in mol/kg. Particulars: 101.3 kPa, Liquid, Standard Abbe refractometry, m2 = 0.
The nature of series [4]: mn = molality of the nth substance listed, in mol/kg. Conditions: 101.3 kPa, Liquid, m2 = 0; for viscosity: Capillary tube (Ostwald / Ubbelohde) method; for mass density: Pycnometric method; for speed of sound: Single path-length method.

± gives the expanded uncertainty stated by the source.

As usually defined, the viscosity is the internal friction of a fluid under shear. For orientation: refractive index means a measure of how strongly the sample bends light. On to `O` [water], for which the viscosity in series [1] (278.15 K) turned out to be 1.519 ± 0.032 mPa·s; in series [1] (288.15 K), 1.138 ± 0.025 mPa·s; in series [1] (298.15 K) it was 0.8903 ± 0.019 mPa·s. The refractive index in series [2] (278.15 K) amounted to 1.3339 ± 0.0005; in series [2] (288.15 K) it was 1.3334 ± 0.0005; in series [2] (298.15 K), 1.3325 ± 0.0005.
Usually mass density stands for mass per unit of volume. What is called speed of sound is how fast a sound wave travels through the sample. Regarding `O` [water] + O=C1O[C@H]([C@@H](O)CO)C(O)=C1O, the refractive index in series [3] (278.15 K) was found to be 1.3339 ± 0.0005; in series [3] (288.15 K), 1.3334 ± 0.0005; in series [3] (298.15 K), 1.3325 ± 0.0005. Also, the viscosity is 1.519 ± 0.032 mPa·s in series [4] (278.15 K), 1.138 ± 0.025 mPa·s in series [4] (288.15 K) and 0.8903 ± 0.019 mPa·s in series [4] (298.15 K). Also, the mass density in series [4] (278.15 K) came to 999.96 ± 0.37 kg/m3. In addition, the speed of sound in series [4] (278.15 K) was found to be 1426.2 ± 2.2 m/s.
For `O` [water] + O=C1O[C@H]([C@@H](O)CO)C([O-])=C1O.[Na+], the refractive index was determined as 1.3339 ± 0.0005 in series [3] (278.15 K), 1.3334 ± 0.0005 in series [3] (288.15 K) and 1.3325 ± 0.0005 in series [3] (298.15 K). Also, the viscosity in series [4] (278.15 K) was found to be 1.519 ± 0.032 mPa·s; in series [4] (288.15 K), 1.138 ± 0.025 mPa·s; in series [4] (298.15 K) it was 0.8903 ± 0.019 mPa·s. Moreover, in series [4] (278.15 K), the mass density is reported as 999.96 ± 0.38 kg/m3. In series [4] (278.15 K), the speed of sound came out at 1426.2 ± 2.2 m/s.
